Source: patent publication US10683289B2, “Apoptosis signal-regulating kinase 1 inhibitors and methods of use thereof” (ENANTA PHARMACEUTICALS, INC., priority 2018, dated 2020)

biological target: ASK1 (Homo sapiens (Human), UniProt Q99683); assay: HTRF KinEASE Assay, inhibition of ASK1; type: biochemical; conditions: 5 nM ASK1 kinase, 1 uM STK3 peptide substrate, 100 uM ATP, TR-FRET; read-out: IC50 range
Method: HTRF® KinEASE™ Assay ASK1 was purchased from Thermofisher (Catalogue # PV4011), ATP was purchased from Sigma (Catalogue # A7699), HTRF® KinEASE™ Assay System was obtained from Cisbio (Bedford, Mass.). ½ Area plate was purchased from Perkin Elmer (Catalogue # #6005560). HTRF® KinEASE™-STK is a generic method for measuring serine/threonine kinase activities using a time-resolved fluorescence resonance energy transfer (TR-FRET) immunoassay. […] The test compound, 1 uM STK3 peptide substrate, and 5 nM of ASK1 kinase are incubated with kinase reaction buffer containing 50 mM HEPES pH 7.5, 0.01% BRIJ-35, 10 mM MgCl2, and 1 mM EGTA for 30 minutes. 100 uM ATP is added to start kinase reaction and incubated for 3 hours. The STK3-antibody labeled with Eu^3+-Cryptate and 125 nM streptavidin-XL665 are mixed in a single addition with stop reagents provided by the Cisbio kit used to stop the kinase reaction. Fluorescence is detected using an Envision Multilabeled 2014 reader from PerkinElmer. The Fluorescence is measured at 615 nm (Cryptate) and 665 nm (XL665) and a ratio of 665 nm/615 nm is calculated for each well. The resulting TR-FRET is proportional to the phosphorylation level. […] IC50 was determined by XLfit 5.3. By using above method, the inhibition of ASK1 was evaluated for the compounds of Formula (I).

ASK1, sequence (Q99683 whole entry): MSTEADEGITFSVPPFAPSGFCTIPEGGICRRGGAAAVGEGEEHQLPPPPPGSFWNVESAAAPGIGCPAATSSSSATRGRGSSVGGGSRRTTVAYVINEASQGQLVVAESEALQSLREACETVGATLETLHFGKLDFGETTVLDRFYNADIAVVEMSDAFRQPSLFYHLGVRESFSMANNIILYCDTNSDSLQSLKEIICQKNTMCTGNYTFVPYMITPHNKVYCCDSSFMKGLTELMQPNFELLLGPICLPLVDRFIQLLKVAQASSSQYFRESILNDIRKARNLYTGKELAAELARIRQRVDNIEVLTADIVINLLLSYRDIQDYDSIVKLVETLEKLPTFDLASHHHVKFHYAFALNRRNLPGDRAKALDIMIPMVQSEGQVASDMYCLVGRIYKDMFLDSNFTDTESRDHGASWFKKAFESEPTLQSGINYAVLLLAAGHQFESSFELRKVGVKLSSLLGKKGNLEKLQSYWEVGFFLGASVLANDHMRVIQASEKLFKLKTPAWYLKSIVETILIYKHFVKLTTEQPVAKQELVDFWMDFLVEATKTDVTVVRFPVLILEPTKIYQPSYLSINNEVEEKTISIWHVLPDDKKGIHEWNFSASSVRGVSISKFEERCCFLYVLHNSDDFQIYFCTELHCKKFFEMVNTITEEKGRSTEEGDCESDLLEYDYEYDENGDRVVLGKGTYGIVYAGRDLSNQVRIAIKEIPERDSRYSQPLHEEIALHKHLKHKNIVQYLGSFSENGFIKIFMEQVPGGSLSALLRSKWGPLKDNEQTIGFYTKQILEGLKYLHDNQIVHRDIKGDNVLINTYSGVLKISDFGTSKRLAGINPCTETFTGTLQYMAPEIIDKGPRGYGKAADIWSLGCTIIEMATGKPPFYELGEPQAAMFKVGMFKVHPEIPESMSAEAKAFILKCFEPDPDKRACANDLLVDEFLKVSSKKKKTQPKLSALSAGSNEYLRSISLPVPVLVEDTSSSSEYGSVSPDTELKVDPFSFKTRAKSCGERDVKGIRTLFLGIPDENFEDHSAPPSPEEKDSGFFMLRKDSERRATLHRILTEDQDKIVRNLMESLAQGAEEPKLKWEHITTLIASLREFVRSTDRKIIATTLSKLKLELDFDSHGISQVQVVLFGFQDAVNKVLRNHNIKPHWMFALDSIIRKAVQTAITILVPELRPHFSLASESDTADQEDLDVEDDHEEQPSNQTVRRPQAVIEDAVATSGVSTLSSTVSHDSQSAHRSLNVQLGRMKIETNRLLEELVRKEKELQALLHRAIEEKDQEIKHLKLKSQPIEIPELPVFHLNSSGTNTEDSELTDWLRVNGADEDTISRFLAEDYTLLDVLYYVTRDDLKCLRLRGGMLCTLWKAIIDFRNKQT

IC50 | Structure (SMILES)
< 1.5 nM | COc1cc2c(cc1C(=O)Nc1cccc(-c3nncn3C(C)C)n1)S(=O)(=O)N(C)C2 [Example 16, N-(6-(4-isopropyl-4H-1,2,4-triazol-3-yl)pyridin-2-yl)-5-methoxy-2-methyl-2,3-dihydrobenzo[d]isothiazole-6-carboxamide 1,1-dioxide]
< 1.5 nM | COCCN1Cc2cc(OC)c(C(=O)Nc3cccc(-c4nnnn4[C@H](C)CO)n3)cc2S1(=O)=O [Example 22, (R)—N-(6-(1-(1-hydroxypropan-2-yl)-1H-tetrazol-5-yl)pyridin-2-yl)-5-methoxy-2-(2-methoxyethyl)-2,3-dihydrobenzo[d]isothiazole-6-carboxamide 1,1-dioxide]
< 1.5 nM | COc1cc2c(cc1C(=O)Nc1cccc(-c3nnnn3[C@H](C)CO)n1)S(=O)(=O)N(C)C2 [Example 18, (R)—N-(6-(1-(1-hydroxypropan-2-yl)-1H-tetrazol-5-yl)pyridin-2-yl)-5-methoxy-2-methyl-2,3-dihydrobenzo[d]isothiazole-6-carboxamide 1,1-dioxide]
10 to 100 nM | C[C@H](CO)n1nnnc1-c1cccc(NC(=O)c2cc3c(cc2F)CN(C)S3(=O)=O)n1 [Example 17, (R)-5-fluoro-N-(6-(1-(1-hydroxypropan-2-yl)-1H-tetrazol-5-yl)pyridin-2-yl)-2-methyl-2,3-dihydrobenzo[d]isothiazole-6-carboxamide 1,1-dioxide]
10 to 100 nM | COCCN1Cc2cc(F)c(C(=O)Nc3cccc(-c4nncn4C(C)C)n3)cc2S1(=O)=O [Example 19, 5-fluoro-N-(6-(4-isopropyl-4H-1,2,4-triazol-3-yl)pyridin-2-yl)-2-(2-methoxyethyl)-2,3-dihydrobenzo[d]isothiazole-6-carboxamide 1,1-dioxide]
10 to 100 nM | COCCN1Cc2cc(OC)c(C(=O)Nc3cccc(-c4nncn4C(C)C)n3)cc2S1(=O)=O [Example 20, N-(6-(4-isopropyl-4H-1,2,4-triazol-3-yl)pyridin-2-yl)-5-methoxy-2-(2-methoxyethyl)-2,3-dihydrobenzo[d]isothiazole-6-carboxamide 1,1-dioxide]
< 1.5 nM | COCCN1Cc2cc(F)c(C(=O)Nc3cccc(-c4nnnn4[C@H](C)CO)n3)cc2S1(=O)=O [Example 21, (R)-5-fluoro-N-(6-(1-(1-hydroxypropan-2-yl)-1H-tetrazol-5-yl)pyridin-2-yl)-2-(2-methoxyethyl)-2,3-dihydrobenzo[d]isothiazole-6-carboxamide 1,1-dioxide]

Continued, compound first:

Structure (SMILES) | IC50
CC(C)n1nnnc1-c1cccc(NC(=O)c2cc3c(cc2F)CN(C(C)(C)C)S3(=O)=O)n1 [Example 1, 2-(tert-butyl)-5-fluoro-N-(6-(1-isopropyl-1H-tetrazol-5-yl)pyridin-2-yl)-2,3-dihydrobenzo[d]isothiazole-6-carboxamide 1,1-dioxide] | 100 to 1000 nM
CC(C)N1Cc2cc(F)c(C(=O)Nc3cccc(-c4nncn4C(C)C)n3)cc2S1(=O)=O [Example 7, 5-fluoro-2-isopropyl-N-(6-(4-isopropyl-4H-1,2,4-triazol-3-yl)pyridin-2-yl)-2,3-dihydrobenzo[d]isothiazole-6-carboxamide 1,1-dioxide] | 10 to 100 nM
COc1cc2c(cc1C(=O)Nc1cccc(-c3nnnn3C(C)C)n1)S(=O)(=O)N(C(C)(C)C)C2 [Example 6, 2-(tert-butyl)-N-(6-(1-isopropyl-1H-tetrazol-5-yl)pyridin-2-yl)-5-methoxy-2,3-dihydrobenzo[d]isothiazole-6-carboxamide 1,1-dioxide] | > 1000 nM
COc1cc2c(cc1C(=O)Nc1cccc(-c3nncn3C(C)C)n1)S(=O)(=O)N(C(C)C)C2 [Example 8, 2-isopropyl-N-(6-(4-isopropyl-4H-1,2,4-triazol-3-yl)pyridin-2-yl)-5-methoxy-2,3-dihydrobenzo[d]isothiazole-6-carboxamide 1,1-dioxide] | < 1.5 nM
CC(C)Oc1cc2c(cc1C(=O)Nc1cccc(-c3nnnn3[C@H](C)CO)n1)S(=O)(=O)N(C(C)C)C2 [Example 13, (R)—N-(6-(1-(1-hydroxypropan-2-yl)-1H-tetrazol-5-yl)pyridin-2-yl)-5-isopropoxy-2-isopropyl-2,3-dihydrobenzo[d]isothiazole-6-carboxamide 1,1-dioxide] | 10 to 100 nM
CC(C)n1cnnc1-c1cccc(NC(=O)c2cc3c(cc2F)CN(C)S3(=O)=O)n1 [Example 15, 5-fluoro-N-(6-(4-isopropyl-4H-1,2,4-triazol-3-yl)pyridin-2-yl)-2-methyl-2,3-dihydrobenzo[d]isothiazole-6-carboxamide 1,1-dioxide] | 10 to 100 nM
CC(C)N1Cc2cc(N(C)C)c(C(=O)Nc3cccc(-c4nnnn4[C@H](C)CO)n3)cc2S1(=O)=O [Example 14, (R)-5-(dimethylamino)-N-(6-(1-(1-hydroxypropan-2-yl)-1H-tetrazol-5-yl)pyridin-2-yl)-2-isopropyl-2,3-dihydrobenzo[d]isothiazole-6-carboxamide 1,1-dioxide] | 10 to 100 nM
COc1cc2c(cc1C(=O)Nc1cccc(-c3nnnn3[C@H](C)CO)n1)S(=O)(=O)N(C(C)C)C2 [Example 10, (R)—N-(6-(1-(1-hydroxypropan-2-yl)-1H-tetrazol-5-yl)pyridin-2-yl)-2-isopropyl-5-methoxy-2,3-dihydrobenzo[d]isothiazole-6-carboxamide 1,1-dioxide] | < 1.5 nM
CC(C)N1Cc2cc(OCC(F)(F)F)c(C(=O)Nc3cccc(-c4nnnn4[C@H](C)CO)n3)cc2S1(=O)=O [Example 12, (R)—N-(6-(1-(1-hydroxypropan-2-yl)-1H-tetrazol-5-yl)pyridin-2-yl)-2-isopropyl-5-(2,2,2-trifluoroethoxy)-2,3-dihydrobenzo[d]isothiazole-6-carboxamide 1,1-dioxide] | 100 to 1000 nM
CC(C)n1nnnc1-c1cccc(NC(=O)c2cc3c(cc2F)CCN(C(C)(C)C)S3(=O)=O)n1 [Example 4, 2-(tert-butyl)-6-fluoro-N-(6-(1-isopropyl-1H-tetrazol-5-yl)pyridin-2-yl)-3,4-dihydro-2H-benzo[e][1,2]thiazine-7-carboxamide 1,1-dioxide] | 10 to 100 nM
CC(C)N1Cc2cc(F)c(C(=O)Nc3cccc(-c4nnnn4[C@H](C)CO)n3)cc2S1(=O)=O [Example 9, (R)-5-fluoro-N-(6-(1-(1-hydroxypropan-2-yl)-1H-tetrazol-5-yl)pyridin-2-yl)-2-isopropyl-2,3-dihydrobenzo[d]isothiazole-6-carboxamide 1,1-dioxide] | 10 to 100 nM
C[C@H](CO)n1nnnc1-c1cccc(NC(=O)c2cc3c(cc2F)CN(C(C)(C)C)S3(=O)=O)n1 [Example 2, (R)-2-(tert-butyl)-5-fluoro-N-(6-(1-(1-hydroxypropan-2-yl)-1H-tetrazol-5-yl)pyridin-2-yl)-2,3-dihydrobenzo[d]isothiazole-6-carboxamide 1,1-dioxide] | 10 to 100 nM
